Results from patent US4128639A, “Nitrosourea analogs of thymidine” (Research Corporation, priority 1977, dated 1978).
Like-named read-outs stand apart in the source and are kept apart here.

Tests used:
L1210 leukemia cells = assay: Culture study with L1210: inhibition of replication/growth of L1210 cells in vitro; type: cell-based; details: Mus musculus, read-out: ED50 (drug concentration needed to inhibit cell growth by 50%)
Protocol: The effect of the compounds on the growth of L1210 cells in vitro was used as a measure of cytotoxicity. Suspension cultures were grown in Fischer's media supplemented with 10% horse serum at 37°. 72 Hours after addition of the nitrosoureas, cell numbers were determined in two independent samples, in duplicate, using a Coulter counter, for each concentration tested. ED50 values were estimated from dose-response curves compiled from at least three separate experiments and represent the drug concentration needed to inhibit cell growth by 50%.

L1210 cells [1] = assay: In vivo study with CDF1 mice inoculated with L1210 cells
Protocol: Two groups of CDF1 mice were inoculated with 1 × 10^5 L1210 cells/animal intraperitoneally. Two days later, one group of six mice received a single intraperitoneal injection (150 mg/Kg) of compound 5 (5'-[3-(2-chloroethyl)-3-nitrosoureido]-5'-deoxythymidine) and the control group was administered an equal volume of vehicle.

L1210 cells [2] = assay: Reversal of cytotoxicity of nitrosourea analogs of thymidine by pyrimidine deoxyribonucleosides (inhibition study in L1210 cultures); type: cell-based; details: for Percent Reversal: nitrosourea analog 5 μM
[3] = single intraperitoneal injection 150 mg/kg, 2 days after 1 × 10^5 L1210 cells, CDF1 mice
[4] = reversing agent deoxycytidine 0 μM
[5] = reversing agent deoxycytidine 5 μM
[6] = reversing agent deoxycytidine 25 μM
[7] = reversing agent deoxyuridine 0 μM
[8] = reversing agent deoxyuridine 5 μM
[9] = reversing agent deoxyuridine 25 μM
[10] = reversing agent thymidine 25 μM

Compound: O=NN(CCCl)C(=O)NCCCl [BCNU, 1,3-bis(2-Chloroethyl)-1-nitrosourea, reference compound]
- IC50 (L1210 leukemia cells; L1210, 72 h): 4 µM

Compound: Cc1cn([C@H]2C[C@H](O)[C@@H](CNC(=O)N(CCCl)N=O)O2)c(=O)[nH]c1=O [Compound 5, 5'-[3-(2-chloroethyl)-3-nitrosoureido]-5'-deoxythymidine]
- animals survived more than 60 days (L1210 cells [1]; single intraperitoneal injection 150 mg/Kg, 2 days after 1 × 10^5 L1210 cells, CDF1 mice): 2/6
- tumor cell kill (L1210 cells [1]; single intraperitoneal injection 150 mg/Kg, L1210, CDF1 mice): ~5 log
- increase in life span of the dying animals over the controls (L1210 cells [1]; [3]): 211%
- long term survivors (>60 days) (L1210 cells [1]; [3]): 33%

Compound: Cc1cn([C@H]2C[C@H](NC(=O)N(CCCl)N=O)[C@@H](CO)O2)c(=O)[nH]c1=O [Compound 10, 3'-[3-(2-chloroethyl)-3-nitrosoureido]-3'-deoxythymidine]
- IC50 (L1210 leukemia cells; L1210, 72 h): 1.5 µM
- Percent Reversal (L1210 cells [2]; [4]): 0%
- Percent Reversal (L1210 cells [2]; reversing agent deoxycytidine 1 μM): 5%
- Percent Reversal (L1210 cells [2]; [5]): 28%
- Percent Reversal (L1210 cells [2]; [6]): 40%
- Percent Reversal (L1210 cells [2]; [7]): 0%
- Percent Reversal (L1210 cells [2]; reversing agent deoxyuridine 1 μM): 4%
- Percent Reversal (L1210 cells [2]; [8]): 32%
- Percent Reversal (L1210 cells [2]; [9]): 51%
- Percent Reversal (L1210 cells [2]; reversing agent thymidine 0 μM): 0%
- Percent Reversal (L1210 cells [2]; reversing agent thymidine 1 μM): 22%
- Percent Reversal (L1210 cells [2]; reversing agent thymidine 5 μM): 45%
- Percent Reversal (L1210 cells [2]; [10]): 54%

Compound: Cc1cn([C@H]2C[C@H](NC(=O)N(C)N=O)[C@@H](CO)O2)c(=O)[nH]c1=O [Compound 11, 3'-(3-methyl-3-nitrosoureido)-3'-deoxythymidine]
- IC50 (L1210 leukemia cells; L1210 cells in culture, 72 hours, Coulter counter, Fischer's media with 10% horse serum, 37°): 1 µM
- inhibition at 5 µM (L1210 cells [2]; Mus musculus, compound 11 5 μM, no deoxycytidine, L1210, 72 hours, read-out: Percent Inhibition): 100%
- Percent Inhibition (L1210 cells [2]; compound 11 5 μM + deoxycytidine 5 μM, L1210, 72 hours): 58%
- Percent Inhibition (L1210 cells [2]; compound 11 5 μM + deoxycytidine 25 μM, L1210, 72 hours): 26%
- Percent Inhibition (L1210 cells [2]; compound 11 5 μM + deoxycytidine 125 μM, L1210, 72 hours): 0%
- Percent Reversal (L1210 cells [2]; [4]): 0%
- Percent Reversal (L1210 cells [2]; [5]): 42%
- Percent Reversal (L1210 cells [2]; [6]): 74%
- Percent Reversal (L1210 cells [2]; reversing agent deoxycytidine 125 μM): 100%
- Percent Reversal (L1210 cells [2]; [7]): 0%
- Percent Reversal (L1210 cells [2]; [8]): 49%
- Percent Reversal (L1210 cells [2]; [9]): 81%
- Percent Reversal (L1210 cells [2]; reversing agent thymidine 0 μM): 0%
- Percent Reversal (L1210 cells [2]; reversing agent thymidine 1 μM): 21%
- Percent Reversal (L1210 cells [2]; reversing agent thymidine 5 μM): 54%
- Percent Reversal (L1210 cells [2]; [10]): 62%
